Source: patent US10287267B2, “Isoquinolin-3-yl carboxamides and preparation and use thereof” (Samumed, LLC, priority 2016, dated 2019)

Key:
recombinant GSK3β kinase = recombinant GSK3β kinase (Homo sapiens (Human), UniProt P49841); test: GSK3β kinase assay (Ser/Thr 09 peptide Z-lyte FRET); type: biochemical; details: 46 μM ATP, 1 h room temperature;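 note: kinase activity read as coumarin to fluorescein emission ratio, 11-point threefold dilutions from 10 µM to 0.0003 µM in duplicate, unphosphorylated and phosphorylated peptide as 0% and 100% controls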
recombinant GSK3β kinase, sequence (P49841 whole entry): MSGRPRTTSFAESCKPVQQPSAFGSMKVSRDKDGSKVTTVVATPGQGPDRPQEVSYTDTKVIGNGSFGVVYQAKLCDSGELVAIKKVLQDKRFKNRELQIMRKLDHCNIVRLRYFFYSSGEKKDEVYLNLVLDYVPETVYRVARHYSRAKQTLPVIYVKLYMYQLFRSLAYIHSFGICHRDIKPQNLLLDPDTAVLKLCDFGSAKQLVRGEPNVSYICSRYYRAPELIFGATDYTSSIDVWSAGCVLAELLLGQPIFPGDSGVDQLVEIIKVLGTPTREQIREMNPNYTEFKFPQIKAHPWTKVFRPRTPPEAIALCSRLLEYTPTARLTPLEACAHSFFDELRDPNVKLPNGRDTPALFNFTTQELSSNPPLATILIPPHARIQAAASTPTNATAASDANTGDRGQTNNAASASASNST

IL-6 [1] = test: Secreted cytokines in lipopolysaccharide-stimulated BV-2 mouse microglial cells: IL-6; type: cell-based; details: Mus musculus; BV-2 cells, compounds overnight, LPS 250 ng/mL 5 h
Method: (§1) Representative compounds were screened using the cell-based assay procedure for secreted cytokines in a Lipopolysaccharide-stimulated mouse glial cell line described below.
(§2) BV-2 cells (mouse microglial cells) were cultured in 1:1 DMEM medium supplemented with 10% FBS, and 1% penicillin/streptomycin.
(§3) BV-2 cells are plated at 35,000 cells/well in a volume of 100 ul for at least 4 hours before compounds are added. DMSO-resuspended compounds were first dispensed in a 96 well plate and serial diluted from 10 μM to 4.6 nM final concentration in medium. Compounds were added to cells overnight. Two hundred fifty ng per milliliter of lipopolysaccharide (Escherichia coli O55:B5, SIGMA) was added for 5 h. Supernatant is removed and saved for further cytokine detection. The original plates with seeded cells were tested for cytotoxicity by measure of adenosine triphosphate (ATP) release by adding CellTiter-Glo® diluted 1:4 in distilled water (G7573, Promega) and transferring lysed cells to a completely black 96-well plate to be read with the Cytation3. Supernatant was then diluted 1:2 with a diluent from V-PLEX cytokine Kit and directly tested for the secreted cytokines TNFα, IL-6 and KC-GRO using electrochemiluminescence (Meso Scale Discovery). The standard curve for each cytokine was used to convert the electrochemiluminescent signal into pg of protein per mL.

TNFα = test: Secreted cytokines in lipopolysaccharide-stimulated BV-2 mouse microglial cells: TNFα; type: cell-based; details: BV-2 cells, compounds overnight, LPS 250 ng/mL 5 h
Method: as §1, §2, §3

[2] = tested on: SW480 colon carcinoma cells; test: Cell viability assay (CellTiter-Glo); type: cell-based, human; details: Homo sapiens; for EC50: 96 h, SW480 cells, CellTiter-Glo, four days incubation
[3] = tested on: Tau phosphorylation at Ser396 (pSer396); test: Tau phosphorylation assay (pSer396 ELISA / western blot) in SH-SY5Y cells; type: cell-based, human; details: Homo sapiens; SH-SY5Y cells, overnight (16-18 h) exposure; read-out: pSer396 Tau EC50;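 note: EC50 for reduction of Tau pSer396 in lysed cells, measured by colorimetric ELISA or chemiluminescent western blot, both using the same pSer396 antibody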
[4] = molecular target: recombinant DYRK1A kinase (Homo sapiens (Human), UniProt Q13627); test: DYRK1A kinase assay (Ser/Thr 18 peptide Z-lyte FRET); type: biochemical; details: 30 μM ATP, 1 h room temperature;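 note: Read-out is the coumarin to fluorescein emission ratio, referenced to unphosphorylated (0%) and phosphorylated (100%) Ser/Thr 18 peptide controls, values from dose-response curves by non-linear regression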
IL-6 [5] = test: IL-6 inhibition in LPS-stimulated human peripheral blood mononuclear cells (HTRF); type: cell-based; details: Homo sapiens, PBMC; for EC50: Table 9, huPBMCs, LPS 50 ng/mL, 22 hours, dose-response starting from 10 μM; for inhibition at 10 µM: read-out: percent value in parentheses beside EC50 >10 μM;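 for all read-outs here: IL-6 detected by HTRF with an XL665- and Cryptate-labelled anti-IL-6 antibody pair, samples run in duplicate, EC50 obtained from a four-parameter Levenberg-Marquardt curve fit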
Method: After 22 hour incubation, a mixture of anti-IL6 XL665 and anti-IL-6 Cryptate diluted in reconstitution buffer (Catalog #62IL6PEC, Cisbio Inc., Bedford, Mass.) was added to each well. […] All samples were processed in duplicate. […] EC50 was determined using software generated by Dotmatics Limited (Windhill Bishops Stortford Herts, UK) using the Levenberg-Marquardt 4 parameter fitting procedure with finite different gradients.

[6] = tested on: α-smooth muscle actin (αSMA) positive LL29 cells; test: Inhibition of fibrotic process: αSMA in TGF-β1 treated primary human fibroblasts from IPF patients; type: cell-based; details: Homo sapiens, Fibroblast; for EC50: 96 h, Table 8, LL29 fibroblasts from IPF patients, TGF-β1 20 ng/mL, 4 days, dose-response 10 μM to 0.94 nM;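 for all read-outs here: controls were TGF-β1 stimulated wells with DMSO vehicle (positive) and cells given DMSO alone (negative), cultured in F12 medium with 1% fetal bovine serum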
[7] = tested on: Wnt pathway (Sp5-Luc reporter, TCF/LEF binding sites) in SW480 colon carcinoma cells; test: Screening assay for Wnt activity: Sp5-Luc reporter gene assay; type: cell-based, human; details: Homo sapiens; Sp5-Luc reporter, SW480 cells, 36 to 48 hours;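 note: firefly luciferase luminescence read in stably transduced SW480 cells carrying the Sp5 promoter reporter with eight TCF/LEF sites, compounds given in 0.1% DMSO final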
Method: The screening assay for Wnt activity is described as follows.
Following incubation, 15 μl of BriteLite Plus luminescence reagent (Perkin Elmer) was added to each well of the 384-well assay plates. The plates were placed on an orbital shaker for 2 min and then luminescence was quantified using the Envision (Perkin Elmer) plate reader.

KC-GRO = test: Secreted cytokines in lipopolysaccharide-stimulated BV-2 mouse microglial cells: KC-GRO; type: cell-based; details: BV-2 cells, compounds overnight, LPS 250 ng/mL 5 h
Method: as §1, §2, §3

[8] = tested on: secreted β-amyloid 40 (Aβ40) peptide; test: Secreted β-amyloid 40 (Aβ40) peptide in APP overexpressing SH-SY5Y-APP cells; type: cell-based; details: Homo sapiens, overnight (16-18 hours)
Method: Representative compounds were screened using the cell-based assay procedure for secreted β-amyloid 40 (Aβ40) peptide in an APP overexpressing cell line described below.
SH-SY5Y cells were infected with lentivirus to overexpress amyloid (A4) beta precursor protein (APP), hereafter referred to as the SH-SY5Y-APP cells.
SH-SY5Y cells were seeded onto 6-well plates at
The cell assay procedure start 18 h prior to treatment, as SH-SY5Y-APP cells were seeded onto 96-well plates at
At this time, designated wells were seeded with SH-SY5Y cells that were seeded and treated with puromycin at
Cells were exposed overnight (16-18 hours) in a 37° C. incubator before supernatant was harvested. […] The original plates with seeded cells were tested for cytotoxicity by measure of adenosine triphosphate (ATP) release by adding CellTiter-Glo® diluted 1:4 in distilled water (G7573, Promega) and transferring lysed cells to a completely black 96-well plate to be read with the Cytation3. Plates containing supernatant were spun down at 1200 g for 10 minutes to remove any cellular debris. Supernatant was then diluted 1:2 with a diluent from V-PLEX Aβ40 Peptide (6E10) Kit and directly tested for secreted Aβ40 peptide (K150SKE, Meso Scale Discovery).

## Cc1nnc(-c2ccc3cnc(NC(=O)C4CCN(CC(C)C)CC4)cc3c2)o1 [Compound 1020, 1-Isobutyl-N-(6-(5-methyl-1,3,4-oxadiazol-2-yl)isoquinolin-3-yl)piperidine-4-carboxamide]
Recombinant GSK3β kinase
  EC50: 13 nM
IL-6 [1]
  EC50: 87 nM
TNFα
  EC50: 597 nM
[2]
  EC50: 1030 nM
[3]
  EC50: 49 nM
[4]
  EC50: 10.4 nM
IL-6 [5]
  EC50: 1180 nM
[6]
  EC50: > 10000 nM
[6]; read-out: percent value in parentheses beside EC50 >10 μM
  inhibition at 10 µM: 30.6%
[7]
  EC50: 1140 nM
KC-GRO
  EC50: 708 nM

## Cn1cc(-c2ccc3cnc(NC(=O)C4CCN(CCF)CC4)cc3c2)cn1 [Compound 81, 1-(2-Fluoroethyl)-N-(6-(1-methyl-1H-pyrazol-4-yl)isoquinolin-3-yl) piperidine-4-carboxamide]
Recombinant GSK3β kinase
  EC50: 30 nM
IL-6 [1]
  EC50: 30 nM
TNFα
  EC50: > 10000 nM
[2]
  EC50: 949 nM
[3]
  EC50: 452 nM
[8]
  IC50: 2300 nM
[4]
  EC50: 1.5 nM
IL-6 [5]
  EC50: 395 nM
[6]
  EC50: 104 nM
[7]
  EC50: 735 nM

## Cn1cnnc1-c1ccc2cnc(NC(=O)C3CCN(CCC(F)(F)F)CC3)cc2c1 [Compound 278, N-(6-(4-Methyl-4H-1,2,4-triazol-3-yl)isoquinolin-3-yl)-1-(3,3,3-trifluoropropyl)piperidine-4-carboxamide]
Recombinant GSK3β kinase
  EC50: 7 nM
IL-6 [1]
  EC50: 217 nM
TNFα
  EC50: > 10000 nM
[2]
  EC50: 1230 nM
[3]
  EC50: 76 nM
[4]
  EC50: 3.2 nM
IL-6 [5]
  EC50: 3990 nM
[6]
  EC50: 211 nM
[7]
  EC50: 413 nM

## Cc1ncc(-c2ccc3cnc(NC(=O)[C@H]4CC[C@H](N5CCOCC5)CC4)cc3c2)o1 [Compound 1064, trans-N-(6-(2-methyloxazol-5-yl)isoquinolin-3-yl)-4-morpholinocyclohexane-1-carboxamide]
Recombinant GSK3β kinase
  EC50: 126 nM
IL-6 [1]
  EC50: 6 nM
TNFα
  EC50: 30 nM
[2]
  EC50: 4850 nM
[3]
  EC50: 109 nM
[4]
  EC50: 6.7 nM
IL-6 [5]
  EC50: 3500 nM
[7]
  EC50: 4120 nM
KC-GRO
  EC50: 14 nM

## Cn1cc(-c2ccc3cnc(NC(=O)C4CCN(CC(C)(C)O)CC4)cc3c2)cn1 [Compound 1006, 1-(2-Hydroxy-2-methylpropyl)-N-(6-(1-methyl-1H-pyrazol-4-yl)isoquinolin-3-yl)piperidine-4-carboxamide]
Recombinant GSK3β kinase
  EC50: 50 nM
IL-6 [1]
  EC50: 11 nM
TNFα
  EC50: 24 nM
[2]
  EC50: 584 nM
[3]
  EC50: 296 nM
[4]
  EC50: 3 nM
IL-6 [5]
  EC50: 1130 nM
[6]
  EC50: 61 nM
[7]
  EC50: 704 nM
KC-GRO
  EC50: 27 nM

## CN1CCC(C(=O)Nc2cc3cc(-c4cnn(C)c4)ccc3cn2)CC1 [Compound 73, 1-Methyl-N-(6-(1-methyl-1H-pyrazol-4-yl)isoquinolin-3-yl)piperidine-4-carboxamide]
Recombinant GSK3β kinase
  EC50: 49 nM
IL-6 [1]
  EC50: 80 nM
TNFα
  EC50: 23 nM
[2]
  EC50: 769 nM
[3]
  EC50: 199 nM
[4]
  EC50: 1.7 nM
IL-6 [5]
  EC50: 963 nM
[6]
  EC50: 169 nM
[7]
  EC50: 485 nM

## Cc1ncc(-c2ccc3cnc(NC(=O)[C@H]4CC[C@H](N(C)C)CC4)cc3c2)o1 [Compound 1017, trans-4-(dimethylamino)-N-(6-(2-methyloxazol-5-yl)isoquinolin-3-yl)cyclohexane-1-carboxamide]
Recombinant GSK3β kinase
  EC50: 76 nM
IL-6 [1]
  EC50: 24 nM
TNFα
  EC50: 29 nM
[2]
  EC50: 659 nM
[3]
  EC50: 320 nM
[4]
  EC50: 3.1 nM
IL-6 [5]
  EC50: 655 nM
[6]
  EC50: 97 nM
[7]
  EC50: 621 nM
KC-GRO
  EC50: 22 nM

## CN1CCC(C(=O)Nc2cc3cc(-c4cnn(C)c4)c(F)cc3cn2)CC1 [Compound 966, N-(7-Fluoro-6-(1-methyl-1H-pyrazol-4-yl)isoquinolin-3-yl)-1-methylpiperidine-4-carboxamide]
Recombinant GSK3β kinase
  EC50: 32 nM
IL-6 [1]
  EC50: 22 nM
TNFα
  EC50: 60 nM
[2]
  EC50: 259 nM
[3]
  EC50: 236 nM
[4]
  EC50: 2 nM
[6]
  EC50: 14 nM
[7]
  EC50: 1590 nM
KC-GRO
  EC50: 71 nM

## Cn1cc(-c2ccc3cnc(NC(=O)CN4CCOCC4)cc3c2)cn1 [Compound 338, N-(6-(1-Methyl-1H-pyrazol-4-yl)isoquinolin-3-yl)-2-morpholinoacetamide]
Recombinant GSK3β kinase
  EC50: 67 nM
IL-6 [1]
  EC50: 144 nM
TNFα
  EC50: 724 nM
[2]
  EC50: 9330 nM
[3]
  EC50: 1700 nM
[4]
  EC50: 6.2 nM
IL-6 [5]
  EC50: 4460 nM
[6]
  EC50: 643 nM
[7]
  EC50: 7370 nM

## CN1CCN(CC(=O)Nc2cc3cc(-c4cn(C)nn4)ccc3cn2)CC1 [Compound 500, N-(6-(1-Methyl-1H-1,2,3-triazol-4-yl)isoquinolin-3-yl)-2-(4-methylpiperazin-1-yl)acetamide]
Recombinant GSK3β kinase
  EC50: 23 nM
IL-6 [1]
  EC50: 34 nM
TNFα
  EC50: 1200 nM
[2]
  EC50: > 10000 nM
[2]; SW480, read-out: percent inhibition at 10 μM
  inhibition at 10 µM: 25.1%
[3]
  EC50: 388 nM
[4]
  EC50: 10.6 nM
IL-6 [5]
  inhibition at 10 µM: 4%
  EC50: > 10000 nM
[6]
  EC50: 675 nM
[7]
  EC50: 3230 nM
KC-GRO
  EC50: 7 nM

## Cn1cncc1-c1ccc2cnc(NC(=O)C3CCN(CCC(F)(F)F)CC3)cc2c1 [Compound 262, N-(6-(1-Methyl-1H-imidazol-5-yl)isoquinolin-3-yl)-1-(3,3,3-trifluoropropyl) piperidine-4-carboxamide]
Recombinant GSK3β kinase
  EC50: 24 nM
IL-6 [1]
  EC50: 1500 nM
TNFα
  EC50: 3200 nM
[2]
  EC50: 1390 nM
[3]
  EC50: 174 nM
[8]
  IC50: 2200 nM
[4]
  EC50: 1.5 nM
IL-6 [5]
  EC50: 1090 nM
[6]
  EC50: 43 nM
[7]
  EC50: 1700 nM

## CN1CCC(C(=O)Nc2cc3cc(-c4nnc(N(C)C)o4)ccc3cn2)CC1 [Compound 1076, N-(6-(5-(dimethylamino)-1,3,4-oxadiazol-2-yl)isoquinolin-3-yl)-1-methylpiperidine-4-carboxamide]
Recombinant GSK3β kinase
  EC50: 11 nM
IL-6 [1]
  EC50: 8 nM
TNFα
  EC50: 1800 nM
[2]
  EC50: 1580 nM
[3]
  EC50: 41 nM
[4]
  EC50: 8.4 nM
IL-6 [5]
  inhibition at 10 µM: 3%
  EC50: > 10000 nM
[7]
  EC50: 640 nM
KC-GRO
  EC50: 291 nM
